Values quoted from earlier work, collected in patent US6306900A, “Enteric coated pharmaceutical compositions” (priority 1996, dated 2001).

Legend:
[1] = patients; origin not known
[2] = W. A. Lee et al
[3] = in words

Row | Structure (SMILES) | side-effects [1] | bioavailability [2] [%] | known activity [3]
1 | COc1c(C)c2c(c(O)c1C/C=C(\C)CCC(=O)OCCN1CCOCC1)C(=O)OC2 [MMF, mycophenolate mofetil] | gastro-intestinal side effects | 100 | –
2 | COc1c(C)c2c(c(O)c1C/C=C(\C)CCC(=O)O)C(=O)OC2 [MPA, Mycophenolic acid] | – | 43 | anti-tumor, anti-viral, immunosuppressive, anti-psoriatic, and anti-inflammatory activity
